Assay results as given in patent US20250041307A1, “Uses of Bicyclic Compounds for the Treatment of Diseases” (Athira Pharma, Inc., priority 2021, published 2025).

Legend:
[1] = Parallel artificial membrane permeability assay (PAMPA); format: in vitro ADME; conditions: PBS, room temperature for 5 hours, 200 uM in donor well
Description: Bioavailable drugs must permeate the cellular membranes of the lining of the digestive tract. To estimate the penetrability of exemplary compounds, the in vitro parallel artificial membrane permeability assay (PAMPA) was utilized.
Test compounds must have a standard curve in the final read plate to determine partitioned concentration of each drug. A 6-point standard curve was prepared for each compound from 0 to 200 μM in phosphate-buffered saline (PBS).
Test compound solution (300 μL in PBS) was added to the donor (bottom) well of the PAMPA plate in 5 replicates and PBS vehicle (200 μL) was added to the acceptor (top) wells of appropriate wells to match the loading of the donor plate. The bottom and top of the PAMPA plates were then sandwiched together. The PAMPA plates were then incubated at room temperature for 5 hours. After incubation, 150 μL of donor solution was added to a UV compatible plate containing the corresponding standard curve. 150 μL of acceptor well solution was added adjacent to the corresponding standard curve and donor well samples for that compound. The plate was then read using a UV plate reader.
Permeability and membrane retention were then calculated based on the following formulas:
where: • A=filter area (0.3 cm^2); • VD=donor well volume (0.3 mL); • VA=acceptor well volume (0.2 mL); • t=incubation time (seconds); • CA(t)=compound concentration in acceptor well at time t; • CD(t)=compound concentration in donor well at time t; and
where: • CD(t), VD, CA(t), and VA are as defined for equation 1, and • C0=initial concentration in donor well (200 uM).

[2] = test system: hepatocyte (HepG2) cell cultures; test: Cytotoxicity assay (LDH release); format: cell-based; conditions: HepG2 cells, 48 hours, 0.1 to 100 μM
Description: This experiment was designed to obtain a preliminary assessment of cytotoxicity.
HepG2 cells were plated in 96-well cell culture plates and allowed to attach overnight at 37° C., 5% CO2 in EMEM+10% FBS. Treatments were made in complete media (EMEM+10% FBS) and included a dilution series of test compounds from 0.1 to 100 μM. Known cytotoxin cerivastatin was used as a positive assay control and prepared at a final concentration of 0.5 μM.
Growth media was replaced with treatment media (EMEM+10% FBS containing test compound dissolved in DMSO) and cells were incubated with test compounds for 48 hours. At the end of the incubation period, supernatant media from each well was transferred to a new plate and LDH assay working solution was added. LDH assay solution undergoes a colorimetric reaction in proportion to the amount of lactate dehydrogenase (an intracellular protein that was only found in the media in the presence of lysed cells) in the media. Color reaction was quantified by measurement of absorbance at a wavelength of 490 nm.
The signal range of the assay was determined by no manipulation in a negative control treatment and full lysis of all cells in a lysis control sample. Compounds that increase the level of cytotoxicity more than 20% above negative control samples were considered cytotoxic in this assay.

[3] = In vitro stability in simulated gastric and intestinal fluids; format: in vitro ADME; conditions: 37° C.; for SGF, compound remaining after 4 hours: simulated gastric fluid pH 1.2, 5 μM; for SGF + Enz, compound remaining after 4 hours: simulated gastric fluid with 3.2 mg/ml pepsin; for SGF + Enz, compound remaining after 4 hours / SIF, compound remaining after 4 hours: 5 μM; for SIF, compound remaining after 4 hours: simulated intestinal fluid pH 6.8 with 10 mg/ml pancreatin
Description: Bioavailability can be estimated by compound stability when exposed to conditions in the body. As an initial assessment of stability properties in a variety of conditions present in animals, exemplary compounds were tested for stability in a battery of simulated body compartments. Compounds were tested for stability in the following solutions: simulated gastric fluid (SGF: 34.2 mM NaCl, pH 1.2), simulated gastric fluid with the digestive enzyme pepsin (SGF+Enzyme: SGF with 3.2 mg/ml pepsin), simulated intestinal fluid with the mixture of enzymes in porcine pancreatin (SIF+Enzyme: 28.7 mM NaH2PO4, 105.7 mM NaCl, pH 6.8, 10 mg/ml pancreatin), rat plasma, and human plasma.
Test compounds were incubated at a final concentration of 5 μM in the above solutions at 37° C. with samples removed at the following time points: 0, 1, 2, and 4 hours. Reactions were stopped and prepared for quantification by addition of excess quench solution containing an internal standard (acetonitrile, 200 ng/mL bucetin). Test compound and internal standard in each sample was quantified by LC-MS/MS, and after internal normalization to bucetin, test compound concentration was expressed as a percentage of concentration at the 0-hour time point. Stability in the relevant test solution was then determined by the percent remaining at the 4-hour time point.

HGF/MET system = test: Phospho-MET ELISA; format: cell-based; conditions: HEK293 cells; with 1 ng/mL recombinant HGF; 15 minutes; augmentation of MET phosphorylation (pMET ELISA)
How it was run: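 Serum-starved (≥8 h) HEK293 cells treated with compound plus 1 ng/mL recombinant HGF for 15 min at 37° C in triplicate, then lysed in RIPA. Equal protein (50–100 μg, BCA-normalized) run in pMET sandwich ELISA, A450 read. Responses scaled 1–10 between 1 ng/mL and 10 ng/mL HGF means, using peak efficacy.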

Row | SMILES | Papp at 5 h, 200 uM [1] [×10⁻⁶ cm/s] | Cytotoxicity [2] | SGF, compound remaining after 4 hours [3] | SGF + Enz, compound remaining after 4 hours [3] | SIF, compound remaining after 4 hours [3] | Potency (HGF/MET system)
1 | CCC(C)CN1CC2N(C(=O)c3ccc(C(F)(F)F)cc3)CCC(=O)N2[C@@H](C)C1=O (stereo partly drawn) [Compound 1a] | > 2 | ++++ (++++ indicates non-toxic at 100 μM) | ++++ (++++ indicates 100% compound remaining after 4 hours) | ++++ (++++ indicates 100% compound remaining after 4 hours) | ++++ (++++ indicates 100% compound remaining after 4 hours) | ++++ (++++ indicates maximum potency at or above 0.1 nM)
2 | CCC(C)CN1CC2N(C(=O)c3ccc(OC(F)F)cc3)CCC(=O)N2[C@@H](C)C1=O (stereo partly drawn) [Compound 2a] | < 2 | ++++ (++++ indicates non-toxic at 100 μM) | ++++ (++++ indicates 100% compound remaining after 4 hours) | +++ (+++ indicates 80-99% compound remaining after 4 hours) | ++++ (++++ indicates 100% compound remaining after 4 hours) | ++ (++ indicates maximum potency at or above 10 nM)
3 | CCC(C)CN1CC2N(Cc3ccc(C(F)(F)F)cc3)CCC(=O)N2[C@@H](C)C1=O (stereo partly drawn) [Compound 5a] | < 2 | ++++ (++++ indicates non-toxic at 100 μM) | +++ (+++ indicates 80-99% compound remaining after 4 hours) | + (+ indicates 20-39% compound remaining after 4 hours) | +++ (+++ indicates 80-99% compound remaining after 4 hours) | + (+ indicates maximum potency at or above 100 nM)
4 | CCC(C)CN1CC2N(Cc3ccc(OC(F)F)cc3)CCC(=O)N2[C@@H](C)C1=O (stereo partly drawn) [Compound 6a] | < 2 | ++++ (++++ indicates non-toxic at 100 μM) | +++ (+++ indicates 80-99% compound remaining after 4 hours) | + (+ indicates 20-39% compound remaining after 4 hours) | ++ (++ indicates 40-79% compound remaining after 4 hours) | + (+ indicates maximum potency at or above 100 nM)
5 | CCC(C)CN1CC2N(Cc3ccc(O)nc3)CCC(=O)N2[C@@H](C)C1=O (stereo partly drawn) [Compound 7a] | > 10 | ++++ (++++ indicates non-toxic at 100 μM) | ++++ (++++ indicates 100% compound remaining after 4 hours) | +++ (+++ indicates 80-99% compound remaining after 4 hours) | ++ (++ indicates 40-79% compound remaining after 4 hours) | ++ (++ indicates maximum potency at or above 10 nM)
6 | CCC(C)CN1CC2N(C(=O)c3ccc(O)cc3)CCC(=O)N2[C@@H](C)C1=O (stereo partly drawn) [Compound 8a] | > 10 | ++++ (++++ indicates non-toxic at 100 μM) | ++++ (++++ indicates 100% compound remaining after 4 hours) | +++ (+++ indicates 80-99% compound remaining after 4 hours) | +++ (+++ indicates 80-99% compound remaining after 4 hours) | + (+ indicates maximum potency at or above 100 nM)
7 | CCC(C)CN1CC2N(C(=O)c3ccc(F)cc3)CCC(=O)N2C(C)C1=O (stereo not drawn) [Compound 11, 1-(4-fluorobenzoyl)-6-methyl-8-(2-methylbutyl)hexahydro-4H-pyrazino[1,2-a]pyrimidine-4,7(6H)-dione] | > 2 | ++++ (++++ indicates non-toxic at 100 μM) | +++ (+++ indicates 80-99% compound remaining after 4 hours) | +++ (+++ indicates 80-99% compound remaining after 4 hours) | ++++ (++++ indicates 100% compound remaining after 4 hours) | +++ (+++ indicates maximum potency at or above 1 nM)
8 | CCC(C)CN1CC2N(C(=O)c3ccc(C(F)(F)F)c(Cl)c3)CCC(=O)N2C(C)C1=O (stereo not drawn) [Compound 12, 1-(3-chloro-4-(trifluoromethyl)benzoyl)-6-methyl-8-(2-methylbutyl)hexahydro-4H-pyrazino[1,2-a]pyrimidine-4,7(6H)-dione] | < 2 | ++++ (++++ indicates non-toxic at 100 μM) | +++ (+++ indicates 80-99% compound remaining after 4 hours) | +++ (+++ indicates 80-99% compound remaining after 4 hours) | ++ (++ indicates 40-79% compound remaining after 4 hours) | ++ (++ indicates maximum potency at or above 10 nM)
9 | CCCCN1CC2N(C(=O)c3ccc(OC(F)F)cc3)CCC(=O)N2C(C)C1=O (stereo not drawn) [Compound 17] | > 2 | ++++ (++++ indicates non-toxic at 100 μM) | +++ (+++ indicates 80-99% compound remaining after 4 hours) | +++ (+++ indicates 80-99% compound remaining after 4 hours) | +++ (+++ indicates 80-99% compound remaining after 4 hours) | +++ (+++ indicates maximum potency at or above 1 nM)
10 | CC1C(=O)N(CCC2CCCC2)CC2N(C(=O)c3ccc(C(F)(F)F)cc3)CCC(=O)N12 (stereo not drawn) [Compound 19] | < 2 | ++++ (++++ indicates non-toxic at 100 μM) | +++ (+++ indicates 80-99% compound remaining after 4 hours) | ++ (++ indicates 40-79% compound remaining after 4 hours) | + (+ indicates 20-39% compound remaining after 4 hours) | +++ (+++ indicates maximum potency at or above 1 nM)
11 | CC1C(=O)N(CCC2CCC2)CC2N(C(=O)c3ccc(C(F)(F)F)cc3)CCC(=O)N12 (stereo not drawn) [Compound 20] | < 2 | ++++ (++++ indicates non-toxic at 100 μM) | +++ (+++ indicates 80-99% compound remaining after 4 hours) | +++ (+++ indicates 80-99% compound remaining after 4 hours) | +++ (+++ indicates 80-99% compound remaining after 4 hours) | + (+ indicates maximum potency at or above 100 nM)
12 | C=CCCN1CC2N(C(=O)c3ccc(C(F)(F)F)cc3)CCC(=O)N2C(C)C1=O (stereo not drawn) [Compound 22] | < 2 | ++++ (++++ indicates non-toxic at 100 μM) | +++ (+++ indicates 80-99% compound remaining after 4 hours) | +++ (+++ indicates 80-99% compound remaining after 4 hours) | +++ (+++ indicates 80-99% compound remaining after 4 hours) | +++ (+++ indicates maximum potency at or above 1 nM)
